Results as given in article PMC9576955, “Daidzein is the in vivo active compound of Puerariae Lobatae Radix water extract for muscarinic receptor-3 inhibition against overactive bladder” (Frontiers in Pharmacology, 2022).
Converted amounts (≈) assume the structure as drawn. Where two headings read alike, the source gives them in different places. One block for each compound: values may come before it.

Columns and labels:
[1] = target: T1, M3 receptor (carbachol-induced detrusor contraction) (Rattus norvegicus, UniProt P08483); assay: Carbachol-induced bladder strip (detrusor) contraction, ex vivo organ bath; format: cell-based, spontaneously hypertensive rats (SHRs); details: for remaining activity at 100 µg/mL: 100 μg/ml; for inhibition at 100 µg/mL: read-out: inhibition rate at 100 μg/ml; for IC10 value / IC50: carbachol (10 μM)-induced detrusor contraction, Mean ± SEM, n = 3
T1 construct: the whole bladder was immediately isolated to prepare detrusor strips in Krebs’ solution; from tissue; host or cells: bladder detrusor strips / bladder sections of SHR
Description: SHRs were sacrificed with carbon dioxide, and the whole bladder was immediately isolated to prepare detrusor strips in Krebs’ solution. Then, the strips were placed in a PanLab organ bath (Harvard Apparatus, Holliston, Massachusetts, United States) full of bubbling Krebs’ solution at 37°C. After stimulation with high-potassium solution, the strips were washed with Krebs’ solution three times. When the strips were incubated in Krebs’ solution until the tension was set at about 1.5 g, 0.1% DMSO was added for a 10-min incubation as a control, and then the muscle strip was stimulated to shrink by adding muscarinic agonist carbachol (10 μM), which is used for determinization of M3 receptor function in the bladder strip ([Liang and Leung, 2012]). Between two stimulations, the strips were washed out and balanced for 15 min. The contraction force of the bladder strip was recorded. After the experiment, detrusor strips were collected, dried, and weighed for data normalization. Data were recorded and analyzed using LabChart software (version 8.0).
Detrusor strips were isolated from SHRs and placed in the organ bath as mentioned previously, and then inhibitory activities of different fractions at 100 μg/ml were tested under carbachol (10 μM)-stimulated detrusor contraction.

[2] = Urine metabolites after oral Gegen water extract, quantified by UPLC-MS/MS; format: in vivo, spontaneously hypertensive rats (SHRs); details: spontaneously hypertensive rat (SHR), 3-week treatment, Mean ± SEM; for concentration at 2 h: 2 h after last dose of Gegen water extract 300 mg/kg p.o., n = 8, read-out: Content in urine, 2 h; for concentration at 4 h: 4 h after last dose of Gegen water extract 300 mg/kg p.o., n = 8, read-out: Content in urine, 4 h; for concentration at 6 h: 6 h after last dose of Gegen water extract 300 mg/kg p.o., n = 8, read-out: Content in urine, 6 h; for concentration at 8 h: 8 h after last dose of Gegen water extract 300 mg/kg p.o., n = 8, read-out: Content in urine, 8 h
Description: Urine samples were collected into ice-cold 15-ml Falcon tubes every 2 h and up to a total of 8 h, and the tubes were cooled by ice to prevent bacteria proliferation and water evaporation during collection. […] The gradient profile was set as follows: 10-40% B from 0 to 11 min; and 40-80% B from 11 to 15 min. The parameters for mass spectrometry were as follows: capillary, 2.5 kV for negative mode; sampling cone, 34 V; source offset, 80 V; cone gas flow, 150 L/h; desolvation gas flow, 650 L/h; and desolvation temperature, 350°C. Samples were kept at 4°C in the sample manager, and the column was maintained at 40°C. […] The precision and accuracy of the quantitation were satisfied according to FDA Bioanalytical Method Validation Guidance for Industry. Total ion chromatograms including retention times and MRM masses are shown in Supplementary Figure S2.

[3] = target: T1, M3 receptor (carbachol-induced detrusor contraction); assay: Carbachol-induced bladder strip (detrusor) contraction, ex vivo organ bath; format: cell-based, spontaneously hypertensive rats (SHRs); details: read-out: inhibition at 12.5 μg/ml
BSA = BSA (Bos taurus, UniProt P02769); assay: Thermal shift control in PBS containing BSA and glycerin; format: binding; details: 100 μg/ml; no M3 receptor protein; read-out: ΔTm in PBS solution containing BSA and glycerin
[4] = cited from earlier work
[5] = target: T2, recombinant human M3 receptor (Homo sapiens, UniProt P20309); assay: Thermal shift assay with recombinant human M3 receptor protein; format: binding; details: for binding to the human M3 receptor protein (verdict in words): thermal shift; for Tm value of the human M3 receptor protein: compound at 100 μg/ml, control (1% DMSO) 64.17 ± 0.37°C, n = 3
T2 construct: Full-length recombinant human M3 muscarinic acetylcholine receptor membrane preparation was provided by Millipore Co; purchased Millipore Co. (Merck KGaA, Darmstadt, Germany)
Description: A thermal shift assay was performed to measure the binding of ligands to a recombinant human M3 receptor as modified from the previous study ([Huynh and Partch, 2015]). Briefly, after optimization of protein and dye concentrations, the M3 receptor protein (0.025 mg/ml) was incubated with different concentrations of tested compounds (0–100 μg/ml in 1% DMSO) in an 18 μl volume of ice-cold PBS for 2 h. Then, SYPRO Orange protein stain (2 μl; 8x as the final concentration diluted from original 5000x with PBS) was added, and the melt curve was detected using the Applied Biosystems QuantStudio5 real-time PCR system under the following conditions: ramp speed, standard; excitation wavelength at 470 nm (Reporter: FAM), and emission wavelength at 586 nm (Quencher: TAMRA) with no passive reference; an initial 2-min hold at 25°C (ramp rate, 1.6°C/s), ramping up in increments of 0.05°C/s to a final temperature of 99°C. Melt temperatures (Tm) were calculated using Protein Thermal Shift software v.1.4 (Applied Biosystems, Thermo, United States). The change in melt temperature (ΔTm) was equal to the Tm of control (1% DMSO) subtracted from the Tm of the tested compound. ΔTm higher than 2°C was considered a positive interaction between the ligand and receptor protein ([Huynh and Partch, 2015]).

[6] = pure compounds at 100 μg/ml, carbachol 10 μM

T1 sequence (P08483 whole entry): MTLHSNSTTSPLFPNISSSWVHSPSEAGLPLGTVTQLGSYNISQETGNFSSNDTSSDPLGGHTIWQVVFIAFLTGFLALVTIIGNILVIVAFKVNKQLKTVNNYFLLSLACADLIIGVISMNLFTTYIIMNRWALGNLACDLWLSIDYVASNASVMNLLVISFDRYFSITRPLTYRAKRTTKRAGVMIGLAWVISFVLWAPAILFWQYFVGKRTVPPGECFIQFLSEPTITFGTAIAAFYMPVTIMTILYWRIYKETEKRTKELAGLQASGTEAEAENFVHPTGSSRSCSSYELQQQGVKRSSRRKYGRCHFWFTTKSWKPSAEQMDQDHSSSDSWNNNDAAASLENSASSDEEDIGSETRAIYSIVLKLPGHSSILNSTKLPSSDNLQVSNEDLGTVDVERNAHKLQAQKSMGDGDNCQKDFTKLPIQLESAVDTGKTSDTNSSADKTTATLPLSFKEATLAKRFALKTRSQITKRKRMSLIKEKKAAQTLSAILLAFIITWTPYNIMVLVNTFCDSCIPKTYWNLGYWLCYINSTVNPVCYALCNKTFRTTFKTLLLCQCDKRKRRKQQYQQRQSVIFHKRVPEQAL
T2 sequence (P20309 whole entry): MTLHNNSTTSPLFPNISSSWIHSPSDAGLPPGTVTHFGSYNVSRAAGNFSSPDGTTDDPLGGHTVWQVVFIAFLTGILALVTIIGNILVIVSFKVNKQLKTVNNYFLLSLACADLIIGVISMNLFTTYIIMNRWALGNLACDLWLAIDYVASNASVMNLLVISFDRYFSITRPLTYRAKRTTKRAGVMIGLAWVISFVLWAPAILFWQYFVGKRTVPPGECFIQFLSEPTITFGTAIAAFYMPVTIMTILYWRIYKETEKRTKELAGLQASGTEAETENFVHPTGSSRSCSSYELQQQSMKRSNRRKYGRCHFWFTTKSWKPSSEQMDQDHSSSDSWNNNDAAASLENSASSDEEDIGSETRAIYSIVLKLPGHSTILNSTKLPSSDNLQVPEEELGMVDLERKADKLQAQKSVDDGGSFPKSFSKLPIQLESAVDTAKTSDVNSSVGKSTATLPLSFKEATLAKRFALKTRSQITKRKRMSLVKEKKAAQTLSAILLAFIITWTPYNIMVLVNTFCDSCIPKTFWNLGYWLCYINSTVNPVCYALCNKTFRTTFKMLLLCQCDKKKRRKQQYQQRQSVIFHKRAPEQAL
BSA, sequence (P02769 25-607): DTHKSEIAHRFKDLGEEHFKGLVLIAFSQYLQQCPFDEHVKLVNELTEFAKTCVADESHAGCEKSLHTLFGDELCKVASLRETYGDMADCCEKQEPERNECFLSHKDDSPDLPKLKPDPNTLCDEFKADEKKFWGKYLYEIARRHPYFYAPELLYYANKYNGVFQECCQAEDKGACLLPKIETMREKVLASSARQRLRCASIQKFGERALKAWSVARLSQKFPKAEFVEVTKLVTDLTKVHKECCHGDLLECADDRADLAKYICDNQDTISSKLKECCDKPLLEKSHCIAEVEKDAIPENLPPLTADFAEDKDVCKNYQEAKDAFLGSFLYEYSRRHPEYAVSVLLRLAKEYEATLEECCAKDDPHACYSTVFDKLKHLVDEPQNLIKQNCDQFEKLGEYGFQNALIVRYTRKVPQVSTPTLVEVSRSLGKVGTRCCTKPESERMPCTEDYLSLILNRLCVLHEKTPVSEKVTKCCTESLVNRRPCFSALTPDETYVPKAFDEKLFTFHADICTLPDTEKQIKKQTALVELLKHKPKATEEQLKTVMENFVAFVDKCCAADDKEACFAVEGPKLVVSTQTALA

Compound: O=c1c(-c2ccc(O)cc2)coc2cc(O)ccc12 [Daidzein, daidzein]
IC10 value [1]: 8.15 ± 1.85 µg/mL (≈ 32.1 µM)
IC50 [1]: 158 µM
inhibition at 12.5 µg/mL [3]: 15%
ΔTm at 100 µg/mL (BSA): ~0.58 °C
concentration at 2 h ([2]; urine, oral): 4400 ± 1000 ng/mL
concentration at 4 h ([2]; urine, oral): 15900 ± 9300 ng/mL
concentration at 6 h ([2]; urine, oral): 8130 ± 2660 ng/mL
concentration at 8 h ([2]; urine, oral): 14400 ± 5140 ng/mL
plasma AUC ([4]; rat, in vivo, po): 4·4 μg·h/mL
ΔTm at 100 µg/mL ([5]; 100 μg/ml, against 1% DMSO, ΔTm higher than 2°C = positive interaction): 2.12 °C
binding to the human M3 receptor protein (verdict in words) ([5]; 100 μg/ml): positively bound
EC50 ([5]; 3.125–100 μg/ml, at 65.3°C, read-out: EC50 of concentration-dependent increase of Tm (converted)): 62.1 µM
Tm value of the human M3 receptor protein [5]: 66.29 ± 0.38 °C

Compound: O=c1c(-c2ccc(O)cc2)coc2cc(O)cc(O)c12 [Genistein, Genistein (5-hydroxyl daidzein)]
concentration at 2 h ([2]; in vivo): 517 ± 138 ng/mL
concentration at 4 h ([2]; in vivo): 1410 ± 1000 ng/mL
concentration at 6 h ([2]; in vivo): 327 ± 98 ng/mL
concentration at 8 h ([2]; in vivo): 342 ± 35 ng/mL

Compound: O=c1c(-c2ccc(O)cc2)coc2c([C@@H]3O[C@H](CO[C@@H]4OC[C@](O)(CO)[C@H]4O)[C@@H](O)[C@H](O)[C@H]3O)c(O)ccc12 [Puerarin apioside, puerarin apioside]
remaining activity at 100 µg/mL ([1]; carbachol 10 μM): 89.3 ± 9.2%
inhibition at 100 µg/mL [1, 6]: 10.7 ± 9.24%

Compound: O=c1c(-c2ccc(O)cc2)coc2c([C@@H]3O[C@H](CO)[C@@H](O)[C@H](O)[C@H]3O)c(O)ccc12 [Puerarin, puerarin (daidzein-8-C-glucoside)]
IC10 value [1]: 2.90 ± 2.11 µg/mL (≈ 6.96 µM)
inhibition at 100 µg/mL [1]: 33.8 ± 3.05%
concentration at 2 h ([2]; urine, oral): 6380 ± 897 ng/mL
concentration at 4 h ([2]; urine, oral): 10300 ± 2480 ng/mL
concentration at 6 h ([2]; urine, oral): 3310 ± 325 ng/mL
concentration at 8 h ([2]; urine, oral): 2210 ± 164 ng/mL
plasma AUC ([4]; after oral administration of Gegen water extract, ref Wei et al., 2020): 15.1 µg·h/mL
binding to the human M3 receptor protein (verdict in words) ([5]; 100 μg/ml): very weak binding
Tm value of the human M3 receptor protein [5]: 64.92 ± 0.03 °C

The next lines start with the values.

remaining activity at 100 µg/mL ([1]; carbachol 10 μM): 82.3 ± 1.8%
inhibition at 100 µg/mL [1, 6]: 17.8 ± 1.75%
Compound: O=c1c(-c2ccc(O)c(O)c2)coc2c([C@@H]3O[C@H](CO)[C@@H](O)[C@H](O)[C@H]3O)c(O)ccc12 [3′-Hydroxypuerarin, 3′-hydroxypuerarin]

IC10 value [1]: 34.94 ± 6.75 µg/mL (≈ 123 µM)
IC50 [1]: 201 µM
concentration at 2 h ([2]; urine, oral): 26 ± 7 ng/mL
concentration at 4 h ([2]; urine, oral): 85 ± 57 ng/mL
concentration at 6 h ([2]; urine, oral): 30 ± 14 ng/mL
concentration at 8 h ([2]; urine, oral): 28 ± 5 ng/mL
Compound: COc1ccc(-c2coc3cc(O)cc(O)c3c2=O)cc1 [Biochanin A, Biochanin A (genistein 4′-methyl ether)]

IC50 [1]: > 231 µM
Compound: O=c1c(-c2ccc(O)cc2)coc2cc(O[C@@H]3O[C@H](CO)[C@@H](O)[C@H](O)[C@H]3O)cc(O)c12 [Genistin, genistin (genistein-7-O-glucoside)]
